In patent publication US20250281499A1, “FUSED AMINO PYRIMIDINE COMPOUNDS FOR TREATMENT OF NEUROPATHIC AND NEURO-INFLAMMATORY PAIN” (Ovid Therapeutics Inc., priority 2024, published 2025):

Key:
KCC2-S940A = target: T1, KCC2-S940A (Homo sapiens, UniProt Q9H2X9, S963A); assay: Tl+ flux assay, KCC2-S940A construct in HEK-293 cells; format: cell-based
T1 construct: expressed in transfected cells; host or cells: HEK-293
T1 sequence (Q9H2X9 1-1116 isoform Q9H2X9-2 S940A): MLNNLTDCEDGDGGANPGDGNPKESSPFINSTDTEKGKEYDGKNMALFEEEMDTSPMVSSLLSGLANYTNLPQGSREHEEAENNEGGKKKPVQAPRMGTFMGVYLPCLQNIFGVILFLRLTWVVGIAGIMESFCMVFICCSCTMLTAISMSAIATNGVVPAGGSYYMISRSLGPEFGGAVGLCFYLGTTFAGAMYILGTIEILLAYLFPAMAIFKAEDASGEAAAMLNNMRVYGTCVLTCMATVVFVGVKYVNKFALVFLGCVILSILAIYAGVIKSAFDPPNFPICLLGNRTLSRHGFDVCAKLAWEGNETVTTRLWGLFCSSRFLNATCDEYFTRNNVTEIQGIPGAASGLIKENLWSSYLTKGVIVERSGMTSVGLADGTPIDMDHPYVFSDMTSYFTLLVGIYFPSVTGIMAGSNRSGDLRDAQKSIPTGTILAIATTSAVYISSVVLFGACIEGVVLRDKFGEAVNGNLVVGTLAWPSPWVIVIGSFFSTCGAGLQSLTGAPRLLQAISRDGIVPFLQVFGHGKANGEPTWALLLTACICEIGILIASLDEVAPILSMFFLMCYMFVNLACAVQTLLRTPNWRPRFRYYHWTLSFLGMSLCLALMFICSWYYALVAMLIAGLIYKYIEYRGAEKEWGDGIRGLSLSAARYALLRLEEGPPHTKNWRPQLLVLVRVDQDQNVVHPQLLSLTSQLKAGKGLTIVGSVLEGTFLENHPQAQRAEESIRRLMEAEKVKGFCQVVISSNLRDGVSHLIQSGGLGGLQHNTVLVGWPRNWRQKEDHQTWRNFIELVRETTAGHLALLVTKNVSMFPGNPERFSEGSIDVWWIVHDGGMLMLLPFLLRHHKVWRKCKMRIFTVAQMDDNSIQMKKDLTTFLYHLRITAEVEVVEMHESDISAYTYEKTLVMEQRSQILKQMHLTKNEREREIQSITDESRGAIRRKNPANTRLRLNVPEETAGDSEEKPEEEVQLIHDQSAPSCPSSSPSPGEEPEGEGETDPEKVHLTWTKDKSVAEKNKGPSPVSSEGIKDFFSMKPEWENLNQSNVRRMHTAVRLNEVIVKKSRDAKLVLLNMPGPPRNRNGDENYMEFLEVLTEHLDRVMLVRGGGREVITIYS
Description: (§1) FLIPR TI Flux assay. HEK-293 cells were washed with HBSS, and then incubated with loading buffer containing TI sensitive fluorescent dye (https://www.moleculardevices.com), 20 μM bumetanide 20 μM ouabain and 2.5 mM probenecid for 1 h at room temperature (RT) under control conditions or with drugs in the dark using a FlexStation 3 microplate reader (Molecular Devices) and imaged […] for 30 min. Stimulus buffer was added containing 5 mM K^+/0.5 mM Tl^+ and cells were imaged every 1.5 over a 190 second time course The initial rate Tl^+ uptake (Relative Fluorescence Units (RFU) per second) was determined following addition of the stimulus buffer as outlined previously (Conway et al., 2017, supra) (Lee et al., 2022, supra).
(§2) Several studies have shown that the activity and plasma membrane accumulation of KCC2 is potentiated via phosphorylation of S940, a process mediated by the activity of protein kinase C and protein phosphatase 1 (Lee et al, 2011, supra; Lee et al., J Biol Chem 282, 29777-29784 (2007); Moore et al., Proc. Natl. Acad. Sci. U.S.A 115, 10166-10171 (2018); Moore et al., Trends Neurosci. 40, 555-571 (2017); Silayeva et al., Proc. Natl. Acad. Sci. U.S.A. 112, 3523-3528 (2015)). […] Compared to KCC2, effects on KCC3, KCC4, and NKCC1 were only seen at concentrations more than 35-fold that of KCC2 (>100 μM) (FIG. 1G).

KCC3 = target: T2, KCC3 (Homo sapiens, UniProt Q9UHW9); assay: Tl+ flux assay, HEK-293 cells expressing KCC3; format: cell-based; details: read-out: concentration at which effects on KCC3 were seen (EC50, FIG. 1G)
T2 construct: expressed in transfected cells; host or cells: HEK-293
T2 sequence (Q9UHW9 1-1150): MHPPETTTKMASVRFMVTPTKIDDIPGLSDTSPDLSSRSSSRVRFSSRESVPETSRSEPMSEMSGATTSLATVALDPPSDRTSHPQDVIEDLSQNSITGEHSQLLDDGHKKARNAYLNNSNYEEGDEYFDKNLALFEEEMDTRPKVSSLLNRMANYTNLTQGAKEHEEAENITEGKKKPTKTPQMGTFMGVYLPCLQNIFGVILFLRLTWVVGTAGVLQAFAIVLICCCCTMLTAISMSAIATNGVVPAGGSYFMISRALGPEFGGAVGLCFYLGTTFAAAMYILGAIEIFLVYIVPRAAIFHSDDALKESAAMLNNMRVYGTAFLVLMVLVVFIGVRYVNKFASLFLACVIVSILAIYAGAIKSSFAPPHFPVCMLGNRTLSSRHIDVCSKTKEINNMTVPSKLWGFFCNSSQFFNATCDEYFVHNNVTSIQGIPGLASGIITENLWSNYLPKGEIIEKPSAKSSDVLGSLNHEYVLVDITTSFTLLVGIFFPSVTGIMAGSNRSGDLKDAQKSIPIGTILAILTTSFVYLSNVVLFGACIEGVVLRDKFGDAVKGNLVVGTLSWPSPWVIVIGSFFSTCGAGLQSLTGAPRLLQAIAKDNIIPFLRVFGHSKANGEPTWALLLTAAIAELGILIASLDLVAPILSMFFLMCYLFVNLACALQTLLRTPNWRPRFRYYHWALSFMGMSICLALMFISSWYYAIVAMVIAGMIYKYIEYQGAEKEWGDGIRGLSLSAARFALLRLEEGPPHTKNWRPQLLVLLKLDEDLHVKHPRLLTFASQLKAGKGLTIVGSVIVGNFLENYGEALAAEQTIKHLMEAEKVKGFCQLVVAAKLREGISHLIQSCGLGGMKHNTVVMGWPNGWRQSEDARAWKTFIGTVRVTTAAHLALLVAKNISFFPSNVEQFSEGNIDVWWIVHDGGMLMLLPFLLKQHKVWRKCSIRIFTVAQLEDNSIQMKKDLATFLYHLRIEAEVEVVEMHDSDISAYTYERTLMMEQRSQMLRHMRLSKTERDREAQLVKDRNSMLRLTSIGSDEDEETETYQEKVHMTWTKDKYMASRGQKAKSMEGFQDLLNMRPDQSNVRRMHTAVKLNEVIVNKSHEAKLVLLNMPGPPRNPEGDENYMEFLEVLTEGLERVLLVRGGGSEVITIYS
Description: as §1, §2

C[C@@H]1CN(c2nc3c(c(Nc4ccc(C5CCCCC5)cc4)n2)COC3)CCO1 [Compound A, (R)—N-(4-cyclohexylphenyl)-2-(2-methylmorpholino)-5,7-dihydrofuro[3,4-d]pyrimidin-4-amine]
activity of KCC2-S940A construct (KCC2-S940A): increased the activity | EC50 (KCC3): > 100 µM
